Laboratory results as given in patent US8168651B2, “Protein kinase modulators” (Cylene Pharmaceuticals, Inc., priority 2008, dated 2012).

Experiments:
[1] = biological target: each individual kinase of the panel (Homo sapiens, UniProt P10721, D816V); test: Standardized radiometric kinase assays, percentage of activity at 0.5 μM;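 also: Read-out is ³³P-labelled substrate protein phosphorylated by each kinase, captured on filters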
[2] = biological target: each individual kinase of the panel (Homo sapiens, UniProt P51617); test: as above
[3] = biological target: each individual kinase of the panel (Homo sapiens, UniProt P51956); test: as above
[4] = biological target: each individual kinase of the panel (Homo sapiens, UniProt P53778); test: as above
[5] = biological target: each individual kinase of the panel (Homo sapiens, UniProt Q09013); test: as above
[6] = biological target: each individual kinase of the panel (Homo sapiens, UniProt Q13188); test: as above
[7] = biological target: each individual kinase of the panel (Homo sapiens, UniProt Q13237); test: as above
[8] = biological target: each individual kinase of the panel (Homo sapiens, UniProt Q15831); test: as above
[9] = biological target: each individual kinase of the panel (Homo sapiens, UniProt Q16539); test: as above
[10] = biological target: each individual kinase of the panel (Homo sapiens, UniProt Q16539, T106M); test: as above
[11] = biological target: each individual kinase of the panel (Homo sapiens, UniProt Q16620); test: as above
[12] = biological target: each individual kinase of the panel (Homo sapiens, UniProt Q8IWQ3); test: as above
[13] = biological target: each individual kinase of the panel (Homo sapiens, UniProt Q8N4C8); test: as above
[14] = biological target: other protein kinases (each individual kinase); test: Standardized radiometric kinase assays, IC50 over 10 drug concentrations; format: biochemical; details: estimated

Chain of each individual kinase of the panel (Homo sapiens, UniProt Q16539) (Q16539 2-360 limits assumed): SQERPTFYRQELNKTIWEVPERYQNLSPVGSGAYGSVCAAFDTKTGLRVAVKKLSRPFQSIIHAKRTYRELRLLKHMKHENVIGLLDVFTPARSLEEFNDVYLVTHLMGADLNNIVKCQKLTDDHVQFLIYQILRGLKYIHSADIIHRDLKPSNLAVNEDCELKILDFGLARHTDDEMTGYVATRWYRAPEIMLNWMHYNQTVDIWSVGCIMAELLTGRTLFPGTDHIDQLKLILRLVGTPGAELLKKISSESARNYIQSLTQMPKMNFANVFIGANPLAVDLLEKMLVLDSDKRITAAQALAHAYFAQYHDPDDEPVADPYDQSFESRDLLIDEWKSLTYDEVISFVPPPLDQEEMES
Chain of each individual kinase of the panel (Homo sapiens, UniProt Q16539, T106M) (Q16539 2-360 T106M limits assumed): as the sequence (Q16539 2-360 limits assumed) above, with T105M counted along it
Chain of each individual kinase of the panel (Homo sapiens, UniProt Q13237) (Q13237 2-762 limits assumed): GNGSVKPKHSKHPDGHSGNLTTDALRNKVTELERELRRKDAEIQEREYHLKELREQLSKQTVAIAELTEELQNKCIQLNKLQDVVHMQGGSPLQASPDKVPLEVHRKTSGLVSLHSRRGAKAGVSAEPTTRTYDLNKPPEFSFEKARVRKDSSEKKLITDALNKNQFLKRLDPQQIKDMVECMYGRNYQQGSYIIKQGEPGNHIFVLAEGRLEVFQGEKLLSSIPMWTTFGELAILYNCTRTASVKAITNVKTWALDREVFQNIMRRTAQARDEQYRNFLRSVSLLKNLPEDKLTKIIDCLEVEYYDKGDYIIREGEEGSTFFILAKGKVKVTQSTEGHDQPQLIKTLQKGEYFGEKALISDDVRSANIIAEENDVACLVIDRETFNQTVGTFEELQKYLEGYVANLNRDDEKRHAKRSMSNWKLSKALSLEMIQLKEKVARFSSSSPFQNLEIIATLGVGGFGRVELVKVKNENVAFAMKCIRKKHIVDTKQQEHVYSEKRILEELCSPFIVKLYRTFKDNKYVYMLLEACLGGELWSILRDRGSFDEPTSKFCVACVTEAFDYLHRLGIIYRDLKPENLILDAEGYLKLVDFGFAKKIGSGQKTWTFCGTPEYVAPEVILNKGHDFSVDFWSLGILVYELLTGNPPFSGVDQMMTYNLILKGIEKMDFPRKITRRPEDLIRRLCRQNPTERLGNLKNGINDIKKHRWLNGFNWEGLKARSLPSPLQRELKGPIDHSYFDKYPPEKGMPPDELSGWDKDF
Chain of each individual kinase of the panel (Homo sapiens, UniProt P10721, D816V) (P10721 26-976 D816V limits assumed): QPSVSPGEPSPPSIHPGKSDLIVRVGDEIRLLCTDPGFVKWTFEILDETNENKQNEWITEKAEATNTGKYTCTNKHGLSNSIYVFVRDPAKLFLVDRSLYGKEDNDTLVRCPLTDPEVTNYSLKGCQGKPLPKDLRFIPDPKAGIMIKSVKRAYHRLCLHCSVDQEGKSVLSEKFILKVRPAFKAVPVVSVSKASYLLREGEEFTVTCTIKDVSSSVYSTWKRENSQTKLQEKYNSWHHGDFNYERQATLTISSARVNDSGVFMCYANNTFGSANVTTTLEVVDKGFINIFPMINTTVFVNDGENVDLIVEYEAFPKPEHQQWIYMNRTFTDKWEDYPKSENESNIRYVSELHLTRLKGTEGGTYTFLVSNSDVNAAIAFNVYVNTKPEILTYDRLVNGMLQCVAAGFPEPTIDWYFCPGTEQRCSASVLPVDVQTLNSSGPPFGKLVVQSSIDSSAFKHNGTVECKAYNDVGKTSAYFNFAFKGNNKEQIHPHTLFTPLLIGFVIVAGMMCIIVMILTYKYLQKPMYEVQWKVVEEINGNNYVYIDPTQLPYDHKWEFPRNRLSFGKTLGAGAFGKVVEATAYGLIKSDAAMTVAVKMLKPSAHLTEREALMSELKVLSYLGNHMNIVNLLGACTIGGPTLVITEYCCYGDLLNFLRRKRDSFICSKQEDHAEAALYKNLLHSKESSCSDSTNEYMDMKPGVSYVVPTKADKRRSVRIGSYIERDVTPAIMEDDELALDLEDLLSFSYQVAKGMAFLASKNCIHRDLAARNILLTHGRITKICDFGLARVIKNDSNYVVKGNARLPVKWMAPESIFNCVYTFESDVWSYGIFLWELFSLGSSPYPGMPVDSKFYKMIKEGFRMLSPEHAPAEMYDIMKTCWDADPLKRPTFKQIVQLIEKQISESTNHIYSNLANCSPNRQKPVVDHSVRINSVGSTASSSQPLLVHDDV
Chain of each individual kinase of the panel (Homo sapiens, UniProt Q16620) (Q16620 32-822 limits assumed): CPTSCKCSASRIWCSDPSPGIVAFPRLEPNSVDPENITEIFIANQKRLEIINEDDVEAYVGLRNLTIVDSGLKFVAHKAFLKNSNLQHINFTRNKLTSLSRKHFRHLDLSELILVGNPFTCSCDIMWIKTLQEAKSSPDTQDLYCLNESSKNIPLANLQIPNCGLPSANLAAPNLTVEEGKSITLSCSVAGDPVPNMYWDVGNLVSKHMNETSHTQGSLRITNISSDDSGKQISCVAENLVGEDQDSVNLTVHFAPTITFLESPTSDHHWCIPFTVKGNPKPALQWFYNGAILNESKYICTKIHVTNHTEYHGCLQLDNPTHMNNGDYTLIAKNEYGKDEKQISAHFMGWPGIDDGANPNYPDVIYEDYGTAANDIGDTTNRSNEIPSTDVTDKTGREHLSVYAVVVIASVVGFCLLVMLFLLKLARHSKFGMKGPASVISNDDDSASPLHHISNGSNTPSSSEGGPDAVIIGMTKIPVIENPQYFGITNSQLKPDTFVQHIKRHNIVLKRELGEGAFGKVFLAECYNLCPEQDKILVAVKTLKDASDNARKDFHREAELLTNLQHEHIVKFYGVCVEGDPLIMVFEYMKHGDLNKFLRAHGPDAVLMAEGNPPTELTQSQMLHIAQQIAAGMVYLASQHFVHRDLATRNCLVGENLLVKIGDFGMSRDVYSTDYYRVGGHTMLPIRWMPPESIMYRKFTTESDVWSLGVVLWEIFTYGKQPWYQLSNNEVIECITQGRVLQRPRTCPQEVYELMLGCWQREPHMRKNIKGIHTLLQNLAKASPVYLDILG

## C#Cc1cccc(Nc2nc3cc(C(=O)O)ccc3c3cncnc23)c1 [drawing 1135]
[1]
  cKit(D816V) percentage of activity: 2%
[2]
  IRAK1 percentage of activity: 4%
[3]
  NEK3 percentage of activity: −12%
[4]
  p38-gamma percentage of activity: 12%
[5]
  DMPK percentage of activity: 4%
[6]
  MST2 percentage of activity: −6%
[7]
  PRKG2 percentage of activity: 2%
[8]
  LKB1 percentage of activity: −2%
[9]
  p38-alpha percentage of activity: 1%
[10]
  p38-alpha (T106M) percentage of activity: −8%
[11]
  TRKB percentage of activity: 10%
[12]
  BRSK2 percentage of activity: 7%
[13]
  MINK percentage of activity: −13%

## Clc1ccccc1Nc1nc2c(-c3nnc[nH]3)cccc2c2cnccc12 [A]
[14]; Flt3(h)
  IC50: 104 nM
[14]; Pim-1(h)
  IC50: 1 nM
[14]; Pim-2(h)
  IC50: 6 nM
[14]; Pim-3(h)
  IC50: 86 nM
[14]; Rsk1(h)
  IC50: 41 nM
[14]; Rsk2(h)
  IC50: 72 nM
[14]; Rsk3(h)
  IC50: 73 nM
[14]; Rsk4(h)
  IC50: 37 nM
